Reference: ChEMBL document CHEMBL1914343, “Recent progress in synthesis and bioactivity studies of indolizines” (Eur J Med Chem, 2011)
pIC50: −log10 of the molar value. Values after ≈ are worked out from the molar mass of the structure shown. Active and inactive are the calls of the source. No cut-off for these calls is given here.

How the values were obtained:
[1] = biological target: T1, Substance-K receptor (Homo sapiens, UniProt P21452); experiment: Antagonist activity at human NK2 receptor expressed in CHO cells assessed as inhibition of Neurokinin A-induced increase in intracellular Ca2+ increase by Fura-2 assay; type: functional, cell-based; conditions: read-out: pA2 (converted)
T1 sequence (P21452 whole entry): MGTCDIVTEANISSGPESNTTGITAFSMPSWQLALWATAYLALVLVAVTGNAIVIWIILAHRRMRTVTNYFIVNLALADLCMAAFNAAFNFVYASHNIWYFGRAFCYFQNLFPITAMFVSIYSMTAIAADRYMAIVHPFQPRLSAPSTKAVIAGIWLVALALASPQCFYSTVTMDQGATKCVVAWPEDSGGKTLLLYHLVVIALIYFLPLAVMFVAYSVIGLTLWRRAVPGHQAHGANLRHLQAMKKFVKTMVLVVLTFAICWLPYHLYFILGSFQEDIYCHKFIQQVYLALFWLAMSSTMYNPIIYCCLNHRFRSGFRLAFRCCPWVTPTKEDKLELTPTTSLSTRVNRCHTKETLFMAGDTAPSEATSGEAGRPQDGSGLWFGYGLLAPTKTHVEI

[2] = biological target: Substance-P receptor (Homo sapiens, UniProt P25103); experiment: Antagonist activity at human NK1 receptor expressed in CHO cells assessed as inhibition of SP-induced intracellular Ca2+ increase by Fura-2 assay; type: functional, cell-based; conditions: read-out: pA2 (converted)
[3] = test system: Mycobacterium tuberculosis; experiment: Antimycobacterial activity against Mycobacterium tuberculosis H37Rv ATCC 27294 by microplate alamar blue assay; type: functional
[4] = test system: Mycobacterium tuberculosis; experiment: Antimycobacterial activity against Mycobacterium tuberculosis H37Rv ATCC 27294 at 6.25 ug/mL by microplate alamar blue assay; type: functional
[5] = Inhibition of soybean arachidonate 15-lipoxygenase; parameters: species or system Glycine max
[6] = test system: Candida albicans; experiment: Antifungal activity against Candida albicans at 100 ug/mL; type: functional, organism-based
[7] = test system: Streptomyces albus; experiment: Antibacterial activity against Streptomyces albus at 100 ug/mL; type: functional, organism-based
[8] = test system: Aspergillus flavus; experiment: Antifungal activity against Aspergillus flavus at 100 ug/mL; type: functional, organism-based
[9] = test system: Escherichia coli; experiment: Antibacterial activity against Escherichia coli at 100 ug/mL; type: functional, organism-based
[10] = biological target: T2, Polyunsaturated fatty acid lipoxygenase ALOX15 (Oryctolagus cuniculus, UniProt P12530); experiment: Inhibition of rabbit reticulocytes arachidonate 15-lipoxygenase
T2 sequence (P12530 whole entry): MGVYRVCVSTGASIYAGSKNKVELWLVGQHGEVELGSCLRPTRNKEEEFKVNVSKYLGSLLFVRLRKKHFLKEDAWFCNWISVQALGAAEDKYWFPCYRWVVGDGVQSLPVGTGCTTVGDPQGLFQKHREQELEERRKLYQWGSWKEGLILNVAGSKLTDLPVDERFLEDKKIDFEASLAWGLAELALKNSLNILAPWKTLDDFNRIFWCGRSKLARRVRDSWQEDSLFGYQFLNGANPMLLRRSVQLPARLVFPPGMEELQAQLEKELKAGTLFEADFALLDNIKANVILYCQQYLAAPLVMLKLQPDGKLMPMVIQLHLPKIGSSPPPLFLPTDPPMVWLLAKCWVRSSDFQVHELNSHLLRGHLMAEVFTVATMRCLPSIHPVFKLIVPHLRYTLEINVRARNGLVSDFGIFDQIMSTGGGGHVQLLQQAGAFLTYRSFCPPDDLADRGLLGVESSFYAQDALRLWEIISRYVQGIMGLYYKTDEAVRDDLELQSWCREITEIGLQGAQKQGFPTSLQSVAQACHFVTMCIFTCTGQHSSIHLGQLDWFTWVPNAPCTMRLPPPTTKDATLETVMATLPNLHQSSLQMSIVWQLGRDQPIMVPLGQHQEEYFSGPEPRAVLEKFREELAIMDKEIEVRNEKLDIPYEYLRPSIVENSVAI

[11] = test system: Pichia kudriavzevii; experiment: Antifungal activity against Candida krusei at 32 ug/mL; type: functional, organism-based
[12] = Antioxidant activity assessed as inhibition of lipid peroxidation after 30 mins; type: functional
[13] = test system: Plasmodium falciparum; experiment: Antiplasmodial activity against Plasmodium falciparum; type: functional
[14] = test system: Leishmania donovani; experiment: Antileishmanial activity against Leishmania donovani; type: functional
[15] = test system: Trypanosoma brucei rhodesiense; experiment: Antitrypanosomal activity against Trypanosoma brucei rhodesiense; type: functional
[16] = test system: Trypanosoma cruzi; experiment: Antitrypanosomal activity against Trypanosoma cruzi; type: functional
[17] = test system: Mus musculus; experiment: Antiinflammatory activity in […] mouse assessed as inhibition of carrageenan-induced edema after 3 hrs relative to control; type: functional
[18] = test system: Mus musculus; experiment: Antiinflammatory activity in […] mouse assessed as inhibition of carrageenan-induced edema after 2 hrs relative to control; type: functional
[19] = test system: Mycobacterium tuberculosis; experiment: Ratio MIC for ciprofloxacin to compound for Mycobacterium tuberculosis H37Rv by agar diffusion method; type: functional
[20] = test system: Mycobacterium tuberculosis; experiment: Ratio MIC for ethambutol to compound for Mycobacterium tuberculosis H37Rv by agar diffusion method; type: functional
[21] = test system: Mycobacterium tuberculosis; experiment: Antimycobacterial activity against Mycobacterium tuberculosis H37Rv by agar diffusion method; type: functional
[22] = Half life in human liver microsomes; type: ADME, Microsome
[23] = biological target: Histamine H3 receptor (Rattus norvegicus, UniProt Q9QYN8); experiment: Antagonist activity at rat histamine H3 receptor expressed in […] cells; type: functional, cell-based, SK-N-MC; conditions: read-out: pA2 (converted)
[24] = biological target: Histamine H3 receptor (Homo sapiens, UniProt Q9Y5N1); experiment: Antagonist activity at human histamine H3 receptor expressed in […] cells; type: functional, cell-based, SK-N-MC; conditions: read-out: pA2 (converted)
[25] = biological target: Albumin (Homo sapiens, UniProt P02768); experiment: Binding affinity to human serum albumin; type: ADME; conditions: isolated protein
[26] = Apparent permeability across human Caco2 cells; type: ADME, cell-based; conditions: Caco-2
[27] = biological target: T3, Estrogen receptor (Homo sapiens, UniProt P03372)
T3 sequence (P03372 whole entry): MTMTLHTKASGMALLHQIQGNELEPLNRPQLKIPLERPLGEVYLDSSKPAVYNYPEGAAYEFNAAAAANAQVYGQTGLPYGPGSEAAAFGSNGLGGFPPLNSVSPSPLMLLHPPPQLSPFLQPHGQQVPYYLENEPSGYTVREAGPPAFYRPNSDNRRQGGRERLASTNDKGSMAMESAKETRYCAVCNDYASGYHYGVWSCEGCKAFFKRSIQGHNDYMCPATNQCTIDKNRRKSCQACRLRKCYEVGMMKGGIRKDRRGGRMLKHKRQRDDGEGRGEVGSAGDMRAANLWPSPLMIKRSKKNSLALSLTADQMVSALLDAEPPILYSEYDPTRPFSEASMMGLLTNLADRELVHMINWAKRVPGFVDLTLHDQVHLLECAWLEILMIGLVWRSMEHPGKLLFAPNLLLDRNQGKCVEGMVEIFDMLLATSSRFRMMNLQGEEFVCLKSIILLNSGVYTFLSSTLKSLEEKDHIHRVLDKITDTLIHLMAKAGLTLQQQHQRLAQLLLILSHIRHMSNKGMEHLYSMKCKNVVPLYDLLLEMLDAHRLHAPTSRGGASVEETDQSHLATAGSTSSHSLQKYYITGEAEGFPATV
Description: Agonist activity at estrogen receptor

Substance-P receptor, sequence (P25103 whole entry): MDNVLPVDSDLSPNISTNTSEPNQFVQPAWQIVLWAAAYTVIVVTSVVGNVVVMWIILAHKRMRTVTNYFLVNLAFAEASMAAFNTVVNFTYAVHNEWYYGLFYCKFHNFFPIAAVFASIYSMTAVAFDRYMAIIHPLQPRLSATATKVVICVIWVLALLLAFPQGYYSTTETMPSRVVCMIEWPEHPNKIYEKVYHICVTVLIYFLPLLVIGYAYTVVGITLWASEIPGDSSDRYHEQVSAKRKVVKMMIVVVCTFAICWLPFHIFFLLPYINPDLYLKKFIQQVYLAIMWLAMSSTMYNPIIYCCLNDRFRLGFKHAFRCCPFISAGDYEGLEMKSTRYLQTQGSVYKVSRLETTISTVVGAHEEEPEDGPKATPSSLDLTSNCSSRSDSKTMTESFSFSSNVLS
Histamine H3 receptor (Rattus norvegicus, UniProt Q9QYN8), sequence (Q9QYN8 whole entry): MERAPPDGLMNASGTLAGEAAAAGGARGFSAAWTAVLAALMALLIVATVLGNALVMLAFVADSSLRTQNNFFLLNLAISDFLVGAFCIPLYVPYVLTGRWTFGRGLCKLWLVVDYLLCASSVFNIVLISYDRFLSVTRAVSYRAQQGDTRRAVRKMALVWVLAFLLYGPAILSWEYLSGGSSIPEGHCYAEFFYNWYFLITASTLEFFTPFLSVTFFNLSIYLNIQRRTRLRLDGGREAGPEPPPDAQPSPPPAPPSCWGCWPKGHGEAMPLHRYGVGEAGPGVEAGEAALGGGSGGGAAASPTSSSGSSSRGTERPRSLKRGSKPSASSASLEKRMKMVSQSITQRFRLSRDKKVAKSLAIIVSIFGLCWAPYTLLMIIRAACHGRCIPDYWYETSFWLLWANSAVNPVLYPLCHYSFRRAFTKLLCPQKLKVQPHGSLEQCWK
Albumin, sequence (P02768 whole entry): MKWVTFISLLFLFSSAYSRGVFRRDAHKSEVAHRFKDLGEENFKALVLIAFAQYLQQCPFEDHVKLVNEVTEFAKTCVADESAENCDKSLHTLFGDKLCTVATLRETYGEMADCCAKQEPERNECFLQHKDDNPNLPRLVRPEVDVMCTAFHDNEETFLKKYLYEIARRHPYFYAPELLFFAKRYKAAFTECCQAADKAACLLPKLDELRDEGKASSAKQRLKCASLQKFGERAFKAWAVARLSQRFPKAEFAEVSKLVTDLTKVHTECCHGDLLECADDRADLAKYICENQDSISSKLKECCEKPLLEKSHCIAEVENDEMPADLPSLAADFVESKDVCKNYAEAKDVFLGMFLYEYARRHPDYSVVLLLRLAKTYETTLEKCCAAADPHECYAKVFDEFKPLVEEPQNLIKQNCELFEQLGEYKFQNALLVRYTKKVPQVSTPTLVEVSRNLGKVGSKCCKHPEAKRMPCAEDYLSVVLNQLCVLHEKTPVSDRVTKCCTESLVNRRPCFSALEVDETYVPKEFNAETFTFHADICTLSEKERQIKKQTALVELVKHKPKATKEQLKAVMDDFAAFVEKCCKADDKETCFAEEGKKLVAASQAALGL
Histamine H3 receptor (Homo sapiens, UniProt Q9Y5N1), sequence (Q9Y5N1 whole entry): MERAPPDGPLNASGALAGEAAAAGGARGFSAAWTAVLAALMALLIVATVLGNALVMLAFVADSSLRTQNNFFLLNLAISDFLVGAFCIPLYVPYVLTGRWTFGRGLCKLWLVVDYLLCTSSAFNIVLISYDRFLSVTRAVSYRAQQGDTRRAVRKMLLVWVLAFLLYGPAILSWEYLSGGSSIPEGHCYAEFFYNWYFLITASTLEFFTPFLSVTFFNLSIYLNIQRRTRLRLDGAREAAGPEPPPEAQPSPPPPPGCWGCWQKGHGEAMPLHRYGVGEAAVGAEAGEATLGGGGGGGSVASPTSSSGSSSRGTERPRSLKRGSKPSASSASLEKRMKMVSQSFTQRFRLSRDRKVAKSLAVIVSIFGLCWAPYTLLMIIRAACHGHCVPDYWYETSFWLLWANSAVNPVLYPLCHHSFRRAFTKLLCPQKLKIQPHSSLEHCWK

COC(=O)C1=C2CCC(C(=O)N[C@@H](CCc3c[nH]c4ccccc34)C(=O)N(C)Cc3ccccc3)N2C(=O)C(NC(C)=O)C1 (stereo partly specified)
Kb [1]: 631 nM | Kb [2]: 126 nM

N#Cc1ccn2c(-c3ccccc3)c(-c3ccccc3)c(C(O)c3ccc(Cl)cc3)c2c1 (stereo unspecified)
MIC [3]: 6.25 µg/mL (≈ 14.4 µM) | inhibition at 6.25 µg/mL [4]: 95% | pIC50 [5]: 4.64

CC1=CC=CC2[C@@H]3C(=O)N(c4ccccc4)C(=O)[C@@H]3C(C(=O)c3cccs3)N12 (stereo partly specified)
Activity [6]: Active | Activity [7]: Active | Activity [8]: Active | Activity [9]: Active

c1csc(-c2cc3ccccn3c2)c1
Activity [6]: Active | Activity [7]: Active | Activity [8]: inactive | Activity [9]: Active

N#Cc1ccn2c(-c3ccccc3)c(-c3ccccc3)c(C(O)C3CCCCC3)c2c1 (stereo unspecified)
MIC [3]: > 6.25 µg/mL | pIC50 [5]: 4.64

N#Cc1ccn2c(-c3ccccc3)c(-c3ccccc3)c(C(O)c3ccccc3)c2c1 (stereo unspecified)
MIC [3]: 6.25 µg/mL (≈ 15.6 µM) | pIC50 [10]: 4.32 | Activity [11]: inactive | pIC50 [12]: 4.45 | MIC [13]: 2.3 µg/mL (≈ 5.74 µM) | inhibition at 6.25 µg/mL [4]: 100% | pIC50 [5]: 4.46 | MIC [14]: 2.3 µg/mL (≈ 5.74 µM) | MIC [15]: 12 µg/mL (≈ 30 µM) | MIC [16]: 3.2 µg/mL (≈ 7.99 µM)

N#Cc1cc(C(=O)c2cc3ccccc3o2)n2ccccc12
inhibition (INH) [17]: 24%

CC(C)Cc1ccc(C(C)C(=O)O)cc1 (stereo unspecified) [IBUPROFEN]
inhibition (INH) [18]: 59% | inhibition (INH) [17]: 62%

COC(=O)C1=C2CCC(C(=O)N[C@@H](CCc3c[nH]c4ccccc34)C(=O)N(C)Cc3ccccc3)N2C(=O)C(NC(=O)OCc2ccccc2)C1 (stereo partly specified)
Kb [1]: 200 nM | Kb [2]: 200 nM

CCOC(=O)c1c(-c2ccc(F)cc2)cc2c3ccccc3ccn12
Ratio [19]: 4.7 | Ratio [20]: 7.6 | MIC [21]: 1 µM (≈ 0.333 µg/mL)

Cc1c(-c2ccc(OCCCN3CCCCC3)cc2)cc2ccccn12
half-life [22]: 54 min

COC(=O)c1cc(C(=O)c2cc3ccccc3o2)n2ccccc12
inhibition (INH) [18]: 36%

COC(=O)C1=C2CCC(C(=O)N[C@@H](CCc3c[nH]c4ccccc34)C(=O)NCc3cc(C(F)(F)F)cc(C(F)(F)F)c3)N2C(=O)C(NC(C)=O)C1 (stereo partly specified)
Kb [2]: 100 nM

N#Cc1c(-c2ccc(F)cc2)c([N+](=O)[O-])c2c3ccccc3ccn12
MIC [21]: 3.9 µM (≈ 1.29 µg/mL)

c1ccn2cc(-c3ccc(OCCCN4CCCCC4)cc3)cc2c1
Kb [23]: 19.5 nM | Kb [24]: 3.16 nM | Activity [25]: 50% | half-life [22]: 10 min | Papp [26]: 14.1 ×10⁻⁶ cm/s

CCOC(=O)c1c(-c2ccc(Cl)cc2)cc2c3ccccc3ccn12
MIC [21]: 2.3 µM (≈ 0.805 µg/mL)

Cc1ccc(C(O)c2c(-c3ccccc3)c(-c3ccccc3)n3ccc(C#N)cc23)cc1 (stereo unspecified)
MIC [3]: 6.25 µg/mL (≈ 15.1 µM) | inhibition at 6.25 µg/mL [4]: 90% | pIC50 [5]: 4.66

CCc1c(-c2ccc(O)cc2)c2ccc3cccc1n32
pIC50 [27]: 8.02

CCOC(=O)C1(C#N)C(c2ccc(Cl)cc2)=C(C(=O)c2cccs2)N2C(C)=CC=CC21 (stereo unspecified)
Activity [6]: Active | Activity [7]: Active | Activity [8]: inactive | Activity [9]: Active
